Experimental data as given in PubChem BioAssay (NCI).
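Following 48 hours of exposure in 96-well plates, responses at five concentrations were used to interpolate endpoints linearly. The concentration for 50% growth inhibition is given as GI50. TGI: concentration producing complete growth inhibition.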

Columns and labels:
Test in all cases: NCI-60 cell line screen, 48 h
HOP-62 NSCLC = system: HOP-62 NSCLC
UACC-62 melanoma = system: UACC-62 melanoma
SF-539 CNS = system: SF-539 CNS
TK-10 renal = system: TK-10 renal
NCI-H23 lung = system: NCI-H23 lung
MCF7 breast = system: MCF7 breast
T-47D breast = system: T-47D breast
OVCAR-3 ovarian = system: OVCAR-3 ovarian
RPMI-8226 leukemia = system: RPMI-8226 leukemia
UO-31 renal = system: UO-31 renal

## Cc1ccc(S(=O)(=O)N2CCN(S(=O)(=O)c3ccc(C)cc3)CCN(S(=O)(=O)c3ccc(C)cc3)Cc3cc(Br)c(Br)cc3CN(S(=O)(=O)c3ccc(C)cc3)CC2)cc1
HOP-62 NSCLC
  TGI: > 100 µM
UACC-62 melanoma
  TGI: > 100 µM
SF-539 CNS
  TGI: > 100 µM
TK-10 renal
  TGI: > 100 µM
NCI-H23 lung
  TGI: > 100 µM
MCF7 breast
  TGI: > 100 µM
T-47D breast
  TGI: > 100 µM
OVCAR-3 ovarian
  TGI: > 100 µM
RPMI-8226 leukemia
  TGI: > 100 µM
UO-31 renal
  TGI: > 100 µM

## COc1ccccc1C1c2cc3c(cc2OC(N2CCCC2)C1C)OCO3 (stereo not given)
HOP-62 NSCLC
  TGI: 29.4 µM
UACC-62 melanoma
  TGI: 38.4 µM
SF-539 CNS
  TGI: 31.7 µM
TK-10 renal
  TGI: 47.9 µM
NCI-H23 lung
  TGI: > 31.6 µM
MCF7 breast
  TGI: 39.4 µM
T-47D breast
  TGI: 25.5 µM
OVCAR-3 ovarian
  TGI: 32.4 µM
RPMI-8226 leukemia
  TGI: 38.8 µM
UO-31 renal
  TGI: 33 µM

## CCCCCCCCCCCCC(O)C(=O)O (stereo not given)
HOP-62 NSCLC
  TGI: > 100 µM
UACC-62 melanoma
  TGI: > 100 µM
SF-539 CNS
  TGI: > 100 µM
TK-10 renal
  TGI: > 100 µM
NCI-H23 lung
  TGI: > 100 µM
MCF7 breast
  TGI: > 100 µM
T-47D breast
  TGI: > 100 µM
OVCAR-3 ovarian
  TGI: > 100 µM
RPMI-8226 leukemia
  TGI: > 100 µM
UO-31 renal
  TGI: > 100 µM

## O=c1ccc2ccccc2c2ccccc12
HOP-62 NSCLC
  TGI: 11.2 µM
UACC-62 melanoma
  TGI: 7.12 µM
SF-539 CNS
  TGI: 4.09 µM
TK-10 renal
  TGI: 28 µM
NCI-H23 lung
  TGI: 6.33 µM
OVCAR-3 ovarian
  TGI: 11.5 µM
RPMI-8226 leukemia
  TGI: 7.83 µM
UO-31 renal
  TGI: 13.8 µM

## c1ccc2c(-c3csc(-c4c[nH]c5ccccc45)n3)c[nH]c2c1
HOP-62 NSCLC
  TGI: > 100 µM
UACC-62 melanoma
  TGI: > 100 µM
SF-539 CNS
  TGI: > 100 µM
TK-10 renal
  TGI: > 100 µM
NCI-H23 lung
  TGI: > 100 µM
MCF7 breast
  TGI: > 100 µM
T-47D breast
  TGI: > 100 µM
OVCAR-3 ovarian
  TGI: > 100 µM
UO-31 renal
  TGI: > 100 µM

## COc1cc(C(=O)O)c(-c2cc3c(cc2C=O)OCO3)c(OC)c1OC
HOP-62 NSCLC
  TGI: > 10 µM
UACC-62 melanoma
  TGI: > 10 µM
SF-539 CNS
  TGI: > 10 µM
TK-10 renal
  TGI: > 10 µM
NCI-H23 lung
  TGI: > 10 µM
MCF7 breast
  TGI: > 10 µM
T-47D breast
  TGI: > 10 µM
OVCAR-3 ovarian
  TGI: > 10 µM
RPMI-8226 leukemia
  TGI: > 10 µM

## CC(C)N(C(=O)C12C3C4C1C1C2C3C41C(=O)N(C(C)C)C(C)C)C(C)C (stereo not given)
HOP-62 NSCLC
  TGI: > 50 µM
UACC-62 melanoma
  TGI: > 50 µM
SF-539 CNS
  TGI: > 50 µM
TK-10 renal
  TGI: > 50 µM
NCI-H23 lung
  TGI: > 50 µM
OVCAR-3 ovarian
  TGI: > 50 µM
RPMI-8226 leukemia
  TGI: > 50 µM
UO-31 renal
  TGI: > 50 µM

## Cc1ccc(S(=O)(=O)NC(=O)Nc2cc(Cl)c(S(N)(=O)=O)cc2S(N)(=O)=O)cc1
HOP-62 NSCLC
  TGI: > 100 µM
UACC-62 melanoma
  TGI: > 100 µM
SF-539 CNS
  TGI: > 100 µM
TK-10 renal
  TGI: > 100 µM
NCI-H23 lung
  TGI: > 100 µM
MCF7 breast
  TGI: > 100 µM
OVCAR-3 ovarian
  TGI: > 100 µM
RPMI-8226 leukemia
  TGI: > 100 µM
UO-31 renal
  TGI: > 100 µM

## O=[N+]([O-])/C=C/c1cn(CCCCCCCCCCCCn2cc(/C=C/[N+](=O)[O-])c3ccccc32)c2ccccc12
HOP-62 NSCLC
  TGI: > 100 µM
UACC-62 melanoma
  TGI: > 100 µM
SF-539 CNS
  TGI: > 100 µM
TK-10 renal
  TGI: > 100 µM
NCI-H23 lung
  TGI: > 100 µM
MCF7 breast
  TGI: > 100 µM
OVCAR-3 ovarian
  TGI: > 100 µM
RPMI-8226 leukemia
  TGI: > 100 µM
UO-31 renal
  TGI: > 100 µM

## CC1SC(c2ccc(Cl)cc2)N(CCc2cccs2)C1=O (stereo not given)
HOP-62 NSCLC
  GI50: 1610 nM
  TGI: 3.16 µM
UACC-62 melanoma
  GI50: 1050 nM
  TGI: 2.35 µM
SF-539 CNS
  GI50: 1720 nM
  TGI: 3.21 µM
TK-10 renal
  GI50: 1680 nM
  TGI: 3.4 µM
NCI-H23 lung
  GI50: 1480 nM
  TGI: 3.85 µM
MCF7 breast
  GI50: 2110 nM
  TGI: 6.23 µM
T-47D breast
  GI50: 1290 nM
  TGI: 6.64 µM
OVCAR-3 ovarian
  GI50: 1420 nM
  TGI: 2.74 µM
RPMI-8226 leukemia
  GI50: 1330 nM
  TGI: 4.55 µM

## C/C(=N\NC(=S)Nc1ccc([N+](=O)[O-])cc1)c1nc2ncccc2[nH]1
HOP-62 NSCLC
  TGI: 4.33 µM
SF-539 CNS
  TGI: 1.37 µM
TK-10 renal
  TGI: 4.56 µM
NCI-H23 lung
  TGI: 4.14 µM
MCF7 breast
  TGI: 2.38 µM
T-47D breast
  TGI: 22.9 µM
OVCAR-3 ovarian
  TGI: 17.7 µM
RPMI-8226 leukemia
  TGI: 9.3 µM
UO-31 renal
  TGI: 1.35 µM

## C[C@H]1C[C@H]2[C@@H]3CCC4=CC(=O)C=C[C@]4(C)C3=CC[C@]2(C)[C@@]1(O)C(=O)CO
HOP-62 NSCLC
  TGI: > 100 µM
UACC-62 melanoma
  TGI: > 100 µM
TK-10 renal
  TGI: > 100 µM
NCI-H23 lung
  TGI: > 100 µM
MCF7 breast
  TGI: > 100 µM
T-47D breast
  TGI: > 100 µM
RPMI-8226 leukemia
  TGI: > 100 µM
UO-31 renal
  TGI: > 100 µM

## CN(C)CC(/C(Cc1ccccc1)=N\NC(=S)NN)c1ccccc1 (stereo not given)
HOP-62 NSCLC
  TGI: > 100 µM
UACC-62 melanoma
  TGI: > 100 µM
SF-539 CNS
  TGI: > 100 µM
TK-10 renal
  TGI: > 100 µM
NCI-H23 lung
  TGI: > 100 µM
OVCAR-3 ovarian
  TGI: > 100 µM
RPMI-8226 leukemia
  TGI: > 100 µM
UO-31 renal
  TGI: > 100 µM

## CSc1c(C#N)c(S)n(-c2ccc(Cl)cc2)c(=O)c1C#N
UACC-62 melanoma
  TGI: > 100 µM
SF-539 CNS
  TGI: > 100 µM
TK-10 renal
  TGI: > 100 µM
NCI-H23 lung
  TGI: > 100 µM
MCF7 breast
  TGI: > 100 µM
T-47D breast
  TGI: > 100 µM
OVCAR-3 ovarian
  TGI: > 100 µM
RPMI-8226 leukemia
  TGI: > 100 µM
UO-31 renal
  TGI: 95.8 µM

## COc1cc(-c2cc(=O)c3ccccc3[nH]2)cc(OC)c1OC
HOP-62 NSCLC
  TGI: > 75 µM
UACC-62 melanoma
  TGI: > 75 µM
SF-539 CNS
  TGI: > 75 µM
TK-10 renal
  TGI: > 75 µM
NCI-H23 lung
  TGI: > 75 µM
OVCAR-3 ovarian
  TGI: > 75 µM
RPMI-8226 leukemia
  TGI: > 75 µM
UO-31 renal
  TGI: > 75 µM

## CN(C)C(F)=PC(F)(F)F (stereo not given)
HOP-62 NSCLC
  TGI: > 100 µM
UACC-62 melanoma
  TGI: > 100 µM
SF-539 CNS
  TGI: > 100 µM
TK-10 renal
  TGI: > 100 µM
NCI-H23 lung
  TGI: > 100 µM
RPMI-8226 leukemia
  TGI: > 100 µM
UO-31 renal
  TGI: > 100 µM

## O=C1/C(=C/c2cccs2)NC(=S)N1CN1CCCCC1
HOP-62 NSCLC
  TGI: > 100 µM
UACC-62 melanoma
  TGI: > 100 µM
TK-10 renal
  TGI: > 100 µM
NCI-H23 lung
  TGI: > 100 µM
MCF7 breast
  TGI: > 100 µM
OVCAR-3 ovarian
  TGI: > 100 µM
RPMI-8226 leukemia
  TGI: > 100 µM
UO-31 renal
  TGI: > 100 µM

## O=C(Nc1ccc2[nH]c(C(=O)N3CC(CCl)c4ccc([N+](=O)[O-])cc43)cc2c1)c1cc2ccccc2o1 (stereo not given)
HOP-62 NSCLC
  TGI: > 1100 µM
UACC-62 melanoma
  TGI: > 1100 µM
SF-539 CNS
  TGI: > 1100 µM
NCI-H23 lung
  TGI: > 1100 µM
MCF7 breast
  TGI: > 1100 µM
T-47D breast
  TGI: > 1100 µM
OVCAR-3 ovarian
  TGI: > 1100 µM
RPMI-8226 leukemia
  TGI: > 1100 µM
UO-31 renal
  TGI: > 1100 µM

## CNC(=O)N1N[C@H](c2ccccc2)[C@@H]1c1ccccc1
HOP-62 NSCLC
  TGI: > 100 µM
UACC-62 melanoma
  TGI: 26.8 µM
SF-539 CNS
  TGI: 33.3 µM
TK-10 renal
  TGI: > 100 µM
NCI-H23 lung
  TGI: 47.9 µM
MCF7 breast
  TGI: 62.5 µM
OVCAR-3 ovarian
  TGI: 36.7 µM
UO-31 renal
  TGI: 74.4 µM

## CSC(=N)N1N=C2/C(=C/c3ccccc3)CCC[C@H]2[C@H]1c1ccccc1
HOP-62 NSCLC
  TGI: 20.8 µM
UACC-62 melanoma
  TGI: 23.9 µM
SF-539 CNS
  TGI: 19.5 µM
TK-10 renal
  TGI: 25.8 µM
NCI-H23 lung
  TGI: 19.2 µM
OVCAR-3 ovarian
  TGI: 23.8 µM
RPMI-8226 leukemia
  TGI: 7.12 µM
UO-31 renal
  TGI: 13.4 µM

## Oc1cccnc1/C=N/OCc1ccccc1
HOP-62 NSCLC
  TGI: > 100 µM
UACC-62 melanoma
  TGI: > 100 µM
SF-539 CNS
  TGI: > 100 µM
TK-10 renal
  TGI: > 100 µM
OVCAR-3 ovarian
  TGI: > 100 µM
RPMI-8226 leukemia
  TGI: > 100 µM
UO-31 renal
  TGI: > 100 µM

## COC(=O)CCC(NC(=S)N/N=C(\C)c1cnccn1)C(=O)OC (stereo not given)
HOP-62 NSCLC
  TGI: > 100 µM
UACC-62 melanoma
  TGI: 90.2 µM
SF-539 CNS
  TGI: > 100 µM
TK-10 renal
  TGI: > 100 µM
NCI-H23 lung
  TGI: > 100 µM
OVCAR-3 ovarian
  TGI: > 100 µM
RPMI-8226 leukemia
  TGI: > 100 µM
UO-31 renal
  TGI: > 100 µM

## O=C(O)C12CC3CC(CC(F)(C3)C1)C2
HOP-62 NSCLC
  TGI: > 100 µM
UACC-62 melanoma
  TGI: > 100 µM
SF-539 CNS
  TGI: > 100 µM
TK-10 renal
  TGI: > 100 µM
NCI-H23 lung
  TGI: > 100 µM
OVCAR-3 ovarian
  TGI: > 100 µM
RPMI-8226 leukemia
  TGI: > 100 µM
UO-31 renal
  TGI: > 100 µM
